Data: patent US12239652B2, “Composition for preventing or treating muscular diseases, or for improving muscular functions, containing ganglioside” (INDUSTRY-ACADEMIC COOPERATION FOUNDATION, YONSEI UNIVERSITY, priority 2018, dated 2025)

How the values were obtained:
mTOR = mTOR Sandwich ELISA in L6 myotubes (activity for myogenic induction); assay type: cell-based; details: 12-h culture, *P<0.05
Description: The mTOR protein is known to induce the activation of proteins involved in muscle protein synthesis and an increase in muscle mass in the PI3K/Akt signaling pathway in muscle cells when phosphorylated and activated. Thus, the activity of mTOR was confirmed using an mTOR Sandwich ELISA kit (Cell Signaling Technology, Beverly, MA, USA) to determine the activity of ganglioside GM3 for myogenic induction.
L6 myoblasts (ATCC; Manassas, VA, USA) were seeded with Dulbecco's modified Eagle's media (DMEM; Hyclone) supplemented with 10% fetal bovine serum (FBS; Hyclone, Logan, UT, USA) in a 6-well plate at a density of 1×10^5 cells/well, followed by culture for 24 h. The media in the wells were replaced with DMEM (Hyclone) supplemented with 2% horse serum (HS; Hyclone), followed by culture for additional 6 days to differentiate the L6 cells into myotubes. Then, cells were treated with ganglioside GM3 (Cayman, Ann Arbor, MI, USA) at a concentration of 1 μM or 5 μM. After 12-h culture, cells were lysed by treatment with a cell lysis buffer. Proteins in the cell lysate were quantified by the Bradford method (Bio-Rad Laboratories Inc., Hercules, CA, USA) and the concentration of the cell lysate was then adjusted to 1 mg/mL. The cell lysate was plated in microwells bound with anti-mTOR antibody (50 μL/well) and cultured at 37° C. for 2 h. Cells were washed a total of 4 times with a washing buffer, treated with a detection antibody, and cultured at 37° C. for 1 h, rewashed a total of 4 times with a washing buffer, added with a horseradish peroxidase (HRP)-conjugated secondary antibody, and cultured at 37° C. for 30 min. Finally, after washing a total of 4 times with a washing buffer, TMB substrate was added to each well. After culture at 37° C. for 10 min, a stop solution was added to stop the TMB reaction. 2 min later, absorbance was measured at a wavelength of 450 nm to determine the level of mTOR in the myotubes treated with ganglioside GM3.
The procedure of Example 1 was repeated except that cells were treated with ganglioside GM1 (Cayman) at a concentration of 15 μM or 25 μM to examine the activity of the ganglioside for myogenic induction.
The procedure of Example 1 was repeated except that cells were treated with ganglioside GD1a (Cayman) at a concentration of 1 μM or 3 μM to examine the activity of the ganglioside for myogenic induction.
The procedure of Example 1 was repeated except that cells were treated with each of gangliosides GT1b and GQ1b (Cayman) at a concentration of 1 μM to examine the activity of the ganglioside for myogenic induction.

p-mTOR = assay: Western blot of mRNA translation biomarkers in TNF-α-treated L6 myotubes: p-mTOR; assay type: cell-based; details: 50 ng/mL TNF-α
Description: (§1) L6 myoblasts (ATCC) were seeded with DMEM (Hyclone) supplemented with 10% FBS (Hyclone) in a 6-well plate at a density of 1×10^5 cells/well, followed by culture. When the cultured cells reached a confluency of ˜80-85% per well, the media in the wells were replaced with DMEM (Hyclone) supplemented with 2% HS (Hyclone), followed by culture for additional 6 days to induce differentiation into myotubes. During culture for 6 days, the culture media were changed once every other day a total of 3 times. […] A group treated with 0.01% DMSO instead of the sample was used as a control. Cells were lysed with NP-40 buffer (ELPIS-Biotech, Daej eon, Korea) with a protease inhibitor cocktail (Sigma-Aldrich, St. Louis, MO, USA) and centrifuged at 13,000 rpm for 10 min. The cell lysate was obtained from the supernatant. The concentration of proteins in the supernatant was determined by the Bradford method (Bio-Rad Laboratories Inc.). Proteins at a certain concentration were heated for 5 min and separated by SDS-PAGE electrophoresis. The separated proteins were transferred to nitrocellulose membranes. Then, p-mTOR, mTOR, p-p70S6K, p70S6K, p-4EBP1, 4EBP1, and alpha-tubulin primary antibodies (Cell signaling technology, Beverly, MA, USA) were diluted at a ratio of 1:1000 with 2.5% bovine serum albumin (BSA; Bioworld, Dubin, OH, USA) and incubated with the proteins transferred to the nitrocellulose membranes at room temperature for 20 h. After incubation of the primary antibodies, the nitrocellulose membranes were washed 3 times with Tris-buffer saline Tween 20 (TBST) for 10 min. After washing, an anti-rabbit secondary antibody (Bethyl Laboratories, Inc., Montgomery, TA, USA) conjugated with horseradish peroxidase recognizing the primary antibodies was diluted 1:5000 with 2.5% BSA (Bioworld) and incubated with the nitrocellulose membranes at room temperature for 2 h. […]
(§2) Protein bands detected through antibody binding were developed using an ECL western blot detection reagent (Amersham, Tokyo, Japan) and visualized using a G;BOX EF imaging system (Syngene, Cambridge, UK). […]

p-p70S6K = assay: Western blot of mRNA translation biomarkers in TNF-α-treated L6 myotubes: p-p70S6K; assay type: cell-based; details: 50 ng/mL TNF-α
Description: as §1, §2

p-4EBP1 = assay: Western blot of mRNA translation biomarkers in TNF-α-treated L6 myotubes: p-4EBP1; assay type: cell-based; details: 50 ng/mL TNF-α
Description: as §1, §2

atrogin-1 = assay: RT-PCR of muscle degrading protein mRNA in TNF-α-treated L6 myotubes: atrogin-1; assay type: cell-based; details: 50 ng/mL TNF-α
Description: (§3) L6 myoblasts (ATCC) were seeded with DMEM (Hyclone) supplemented with 10% FBS (Hyclone) in a 6-well plate at a density of 1×10^5 cells/well, followed by culture. When the cultured cells reached a confluency of ˜80-85% per well, the media in the wells were replaced with DMEM (Hyclone) supplemented with 2% HS (Hyclone), followed by culture for additional 6 days to induce differentiation into myotubes. During culture for 6 days, the culture media were changed once every other day a total of 3 times. The differentiation-induced cells were harvested and the cell media were replaced with DMEM supplemented with 50 ng/mL TNF-α (PeproTech) in which ganglioside GM3 (Cayman) was dissolved at a concentration of 1 μM or 5 μM. A group treated with 0.01% DMSO instead of the sample was used as a control. Total RNA was isolated from cells using TRIzol reagent (Takara, Kyoto, Japan). The isolated total RNA was quantified using NanoDrop 1000 (Thermo Fisher Scientific Inc., Waltham, MA, USA). 16 μL of the RNA was synthesized into cDNA using Reverse Transcriptase Premix (ELPIS-Biotech) and a PCR system (Gene Amp PCR System 2700; Applied Biosystems, Foster City, CA, USA) at 42° C. for 55 min and 70° C. for 15 min. 3 μL of the synthesized cDNA, the specific primers shown in Table 1 (Bioneer, Daej eon, Korea), and PCR premix (ELPIS-Biotech) were mixed and PCR was repeated 30 times at 95° C. for 30 sec, 60° C. for 1 min, and 72° C. for 1 min. After PCR amplification, cDNA was separated by electrophoresis on a 1.5% agarose gel and the cDNA bands were visualized using a G;BOX EF imaging system (Syngene).
(§4) The procedure of Example 8 was repeated except that cells were treated with ganglioside GM1 (Cayman) at a concentration of 15 μM or 25 μM to investigate the mRNA transcription and expression levels of atrogin-1 and MuRF1 as muscle degrading proteins.
(§5) The procedure of Example 8 was repeated except that cells were treated with ganglioside GD1a (Cayman) at a concentration of 1 μM or 3 μM to investigate the mRNA transcription and expression levels of atrogin-1 and MuRF1 as muscle protein degradation-related enzymes.
(§6) The procedure of Example 8 was repeated except that cells were treated with each of gangliosides GT1b and GQ1b (Cayman) at a concentration of 1 μM to investigate the mRNA transcription and expression levels of atrogin-1 and MuRF1 as muscle protein degradation-related enzymes.

MuRF1 = assay: RT-PCR of muscle degrading protein mRNA in TNF-α-treated L6 myotubes: MuRF1; assay type: cell-based; details: 50 ng/mL TNF-α
Description: as §3, §4, §5, §6

Wistar rats = assay: Muscle mass (soleus weight) in TNF-α-induced muscular atrophy animal model; assay type: in vivo; details: 50 mg/kg body weight once a day for 8 weeks; for Average soleus weight: right soleus, control 416.0 ± 19.57
Description: Wistar rats, aged five weeks, were acclimatized for one week and supplied with 100 ng/g of TNF-α for 2 weeks to induce muscular atrophy. The animals were randomly divided into a total of 5 groups, 8 animals per group, depending on their weight. Each of gangliosides GM3, GM1, GD1a, GT1b, and GQ1b (each 50 mg/kg body weight) as experimental groups was suspended in 0.25% carboxymethylcellulose. The suspension was administered at a given time once a day for 8 weeks. A group administered the same amounts of 0.25% carboxymethyl cellulose and TNF-α ingested by each experimental group was used as a control.
After administration of the sample for 8 weeks, the right soleus was dissected and its weight was measured with a microbalance (Mettler PE160, USA).

Row | Compound | activity of mTOR in L6 muscle cells (mTOR; 1 μM or 3 μM) | expression level of phosphorylated p-mTOR in L6 muscle cells (p-mTOR; 1 μM or 3 μM) | expression level of phosphorylated p-P70S6K in L6 muscle cells (p-p70S6K; 1 μM or 3 μM) | expression level of phosphorylated p-4EBP1 in L6 muscle cells (p-4EBP1; 1 μM or 3 μM) | mRNA expression level of atrogin-1 in L6 muscle cells (atrogin-1; 1 μM or 3 μM) | mRNA expression level of MuRF1 in L6 muscle cells (MuRF1; 1 μM or 3 μM) | increase of muscle (soleus) weight compared to the control group (Wistar rats) [%] | Average soleus weight (Wistar rats) [mg] | activity of mTOR in L6 muscle cells (mTOR; 15 μM or 25 μM) | expression level of phosphorylated p-mTOR in L6 muscle cells (p-mTOR; 15 μM or 25 μM) | expression level of phosphorylated p-P70S6K in L6 muscle cells (p-p70S6K; 15 μM or 25 μM) | expression level of phosphorylated p-4EBP1 in L6 muscle cells (p-4EBP1; 15 μM or 25 μM) | mRNA expression level of atrogin-1 in L6 muscle cells (atrogin-1; 15 μM or 25 μM) | mRNA expression level of MuRF1 in L6 muscle cells (MuRF1; 15 μM or 25 μM) | activity of mTOR in L6 muscle cells (mTOR; 1 μM) | mRNA expression level of atrogin-1 in L6 muscle cells (atrogin-1; 1 μM) | mRNA expression level of MuRF1 in L6 muscle cells (MuRF1; 1 μM)
1 | CCCCCCCCCCCCC/C=C/[C@@H](O)[C@H](CO[C@@H]1OC(CO)[C@@H](O[C@@H]2OC(CO)[C@H](O[C@H]3OC(CO)[C@H](O)C(O[C@@H]4OC(CO)[C@H](O[C@]5(C(=O)O)CC(O)[C@@H](NC(C)=O)C([C@@H](O)[C@H](O)CO)O5)C(O)C4O)C3NC(C)=O)C(O[C@]3(C(=O)O)CC(O)[C@@H](NC(C)=O)C([C@@H](O)[C@H](O)CO)O3)C2O)C(O)C1O)NC(=O)CCCCCCCCCCCCCCCCC (some centres unmarked) [Ganglioside GD1a, ganglioside GD1a] | significantly increased | increased | increased | increased | reduced | reduced | 17.79 | 490.0 ± 22.8 | – | – | – | – | – | – | – | – | –
2 | CCCCCCCCCCCCC/C=C/[C@@H](O)[C@H](CO[C@@H]1O[C@H](CO)[C@@H](O[C@@H]2O[C@H](CO)[C@H](O[C@@H]3O[C@H](CO)[C@H](O)[C@H](O[C@@H]4O[C@H](CO)[C@H](O)[C@H](O)[C@H]4O)[C@H]3NC(C)=O)[C@H](O[C@]3(C(=O)O)C[C@H](O)[C@@H](NC(C)=O)[C@H]([C@H](O)[C@H](O)CO)O3)[C@H]2O)[C@H](O)[C@H]1O)NC(=O)CCCCCCCCCCCCCCCCC [Ganglioside GM1, ganglioside GM1] | – | – | – | – | – | – | 22.11 | 508.0 ± 19.8 | significantly increased | increased | increased | increased | reduced | reduced | – | – | –
3 | CCCCCCCCCCCCC/C=C/[C@@H](O)[C@H](CO[C@@H]1OC(CO)[C@@H](O[C@@H]2OC(CO)[C@H](O[C@H]3OC(CO)[C@H](O)C(O[C@@H]4OC(CO)[C@@H](O)C(O[C@]5(C(=O)O)CC(O)[C@@H](NC(C)=O)C([C@@H](O)[C@H](CO)O[C@]6(C(=O)O)CC(O)[C@@H](NC(C)=O)C([C@@H](O)[C@H](O)CO)O6)O5)C4O)C3NC(C)=O)C(O[C@]3(C(=O)O)CC(O)[C@@H](NC(C)=O)C([C@@H](O)[C@H](CO)O[C@]4(C(=O)O)CC(O)[C@@H](NC(C)=O)C([C@@H](O)[C@H](O)CO)O4)O3)C2O)C(O)C1O)NC(=O)CCCCCCCCCCCCCCCCC (some centres unmarked) [Ganglioside GQ1b, ganglioside GQ1b] | – | – | – | – | – | – | 16.37 | 484.1 ± 25.4 | – | – | – | – | – | – | significantly increased | reduced | reduced
4 | CCCCCCCCCCCCC/C=C/[C@@H](O)[C@H](CO[C@@H]1OC(CO)[C@@H](O[C@@H]2OC(CO)[C@H](O[C@H]3OC(CO)[C@H](O)C(OC4OC(CO)C(O)[C@H](O[C@]5(C(=O)O)CC(O)[C@@H](NC(C)=O)C([C@@H](O)[C@H](O)CO)O5)C4CO)C3NC(C)=O)C(O[C@]3(C(=O)O)CC(O)[C@@H](NC(C)=O)C([C@@H](O)[C@H](CO)O[C@]4(C(=O)O)CC(O)[C@@H](NC(C)=O)C([C@@H](O)[C@H](O)CO)O4)O3)C2O)C(O)C1O)NC(=O)CCCCCCCCCCCCCCCCC (some centres unmarked) [Ganglioside GT1b, ganglioside GT1b] | – | – | – | – | – | – | 14.42 | 476.0 ± 24.1 | – | – | – | – | – | – | significantly increased | reduced | reduced
